Source: PubChem BioAssay (NCI)
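Step 1: Grow cells in 96-well plates. Step 2: Expose to compound for 48 hours at 5 concentrations. Step 3: Interpolate endpoints linearly; if unreached, use highest concentration. Abbreviation: GI50, concentration required for 50% inhibition of growth. At the TGI there is no net growth.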

Columns and labels:
Assay in all cases: inhibition of tumour cell growth, NCI panel, 48 h
786-0 renal = system: 786-0 renal
SW-620 colon = system: SW-620 colon
SK-MEL-2 melanoma = system: SK-MEL-2 melanoma
UACC-62 melanoma = system: UACC-62 melanoma
NCI-H460 lung = system: NCI-H460 lung
UO-31 renal = system: UO-31 renal
OVCAR-3 ovarian = system: OVCAR-3 ovarian
RPMI-8226 leukemia = system: RPMI-8226 leukemia
K-562 leukemia = system: K-562 leukemia
LOX IMVI melanoma = system: LOX IMVI melanoma

SMILES	TGI (786-0 renal) [µM]	TGI (SW-620 colon) [µM]	TGI (SK-MEL-2 melanoma) [µM]	TGI (UACC-62 melanoma) [µM]	TGI (NCI-H460 lung) [µM]	TGI (UO-31 renal) [µM]	TGI (OVCAR-3 ovarian) [µM]	TGI (RPMI-8226 leukemia) [µM]	TGI (K-562 leukemia) [µM]	TGI (LOX IMVI melanoma) [µM]	GI50 (786-0 renal) [µM]	GI50 (SW-620 colon) [µM]	GI50 (SK-MEL-2 melanoma) [µM]	GI50 (UACC-62 melanoma) [µM]	GI50 (NCI-H460 lung) [µM]	GI50 (UO-31 renal) [µM]	GI50 (OVCAR-3 ovarian) [µM]	GI50 (RPMI-8226 leukemia) [µM]	GI50 (K-562 leukemia) [µM]	GI50 (LOX IMVI melanoma) [µM]
CC(=O)O[C@H]1CCC2[C@@H]3CCC4=C(O)C(=O)C(C#N)C[C@]4(C)C3CC[C@@]21C (stereo partly specified)	> 100	> 100	> 100	> 100	> 100	> 100	> 100	> 100	> 100	> 100										
CN(C)C/C=C/C(=O)Nc1cc2c(Nc3ccc(F)c(Cl)c3F)ncnc2cc1OCCOC(F)F	3.56	9.58	3.36	4.46	10.5	1.78	1.73	4.68	11.3	2.25	0.348	1.24	1.46	1.45	2.34	< 0.01	0.101	0.921	0.519	0.958
COC(=O)c1c(O)c([N+](=O)[O-])cc2c1c1c(n2Cc2ccccc2)C(=O)c2ccccc2C1=O	59.6	11.4	> 100	> 100	27.3	> 100	69.7	24.9	92.6	> 100	15.7	2.97	27.2	30.9	4.94	21.1	11.5	2.32	19	> 100
Fc1ccc(-c2ncn(C3CCNCC3)c2-c2ccnc(Oc3ccc(F)c(F)c3)n2)cc1	> 16.2	8.98	14.5	10.3	13.1	> 25	> 14.4	> 23.7	> 19.9	9.14	8.97	4.36	6.84	4.99	5.42	6.25	6.68	12.5	7.56	4.29
Cc1nc(CN2CCCCC2)c(O)c(=O)[nH]1	> 100	> 100	> 100	> 100	> 100	> 100	> 100	> 100	> 100	> 100										
COc1ccc(/C=C2\CC(C)CC3C2=NN(C(C)=O)C3c2ccc(OC)cc2)cc1 (stereo unspecified)	37.7	59	> 100	35.3	48.7	64.8	42.4	53.2	96.3	38.3	18.8	21.8	30.3	17	18.5	19	18.7	10.9	10.1	17.6
Cc1nccc2c3ccc(OCc4cn(-c5ccc(Cl)cc5)nn4)cc3n(CCCc3ccccc3)c12	1.39	> 33.3	> 33.3	7.43	17.9	1.37	17.7	> 33.3	> 33.3	4.88	0.649	2.2	> 33.3	1.89	2.74	0.545	6.68	2.45	2.96	1.08
Cc1cc(O)c(C2=NN(c3ccc(S(N)(=O)=O)cc3)C(c3ccc(N(C)C)cc3)C2)c(C)c1Cl (stereo unspecified)	32.2	37.8	43.6	25.8	27.4	29.4	33.3	37.5	44.8	32	16.8	18.4	21.4	9.92	12.2	12.7	17.8	7.25	14	14.8
CCN(CC)CCCC(C)Nc1nc(C)cc(Nc2ccc3nc(C)cc(N)c3c2)n1 (stereo unspecified)	> 100	> 100	> 100	> 100	62.8	> 100	96.9	23	51.5	39.8	> 100	35.8	56.6	39.2	24.3	86.1	32.1	4.52	27.1	18.4
C#CCN(N=O)C(=O)NC(CCCNC(=O)OCc1ccccc1)C(=O)OCc1ccccc1 (stereo unspecified)	> 100	> 100	> 100	> 100	> 100	> 100	> 100	> 100	> 100	> 100										
COc1ccc(C[C@@H]2NC[C@@H](O)[C@@H]2OC(C)=O)cc1			0.3						> 100		9	4.16		3.19	3.43	44.6	5.34	1.79	1.1	3.46
CCOC(=O)C(=O)Nc1ccc(Cl)cc1C	> 100	> 100	> 100	> 100	> 100	> 100	> 100	> 100	> 100	> 100										
C[C@@H]1Cc2c([nH]c3ccccc23)[C@@H](c2c(F)cc(NC3CN(CCCF)C3)cc2F)N1CC(F)(F)CO	24.7	13	16.5	5.77	19.2	16.5	26.3	14.1	11.8	3.49	8.68	3.28	4.37	2.35	5.19	3.7	11.3	2.82	3.24	1.75
